The results in this text go back to patent US6294580A, “Substituted 4-hydroxy-phenylalcanoic acid derivatives with agonist activity to PPAR-gamma” (Glaxo Wellcome Inc., priority 1996, dated 2001).

One test deals with PPARg. The experiment in a line: PPARgamma Transient Cotransfection Assay. The class given is cell-based. Particulars: CAT reporter, read-out: PPARg EC50.
Another test concerns the target T1, hPPARgamma (Homo sapiens, UniProt P37231).
T1 construct: 10x-histidine tag (N); made in house; host or cells: E. coli
T1 sequence (P37231 195-475 isoform P37231-2): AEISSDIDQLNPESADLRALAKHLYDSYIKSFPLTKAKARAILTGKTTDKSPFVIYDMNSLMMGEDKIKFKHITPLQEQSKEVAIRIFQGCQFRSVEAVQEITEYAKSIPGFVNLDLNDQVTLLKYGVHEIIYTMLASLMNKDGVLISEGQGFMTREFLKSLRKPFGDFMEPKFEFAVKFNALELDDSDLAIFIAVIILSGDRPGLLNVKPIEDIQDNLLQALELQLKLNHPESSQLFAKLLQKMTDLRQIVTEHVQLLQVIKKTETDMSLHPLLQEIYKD
In words: hPPARgamma Ligand Binding Assay. Particulars: competition with [3H]-BRL 49,653, room temperature 2 hrs.

pEC50, pKi: −log10 of the molar value. Counter-ions that a name gives are not always drawn. Like-named read-outs stand apart in the source and are kept apart here.

Protocol for hPPARgamma: 2. hPPARgamma Ligand Binding Assay: The PPAR-gamma ligand binding domain (amino acids 195-475) was expressed with an N-terminal 10×-histidinetag in E. coli cells. The cells were lysed and receptor was purified by means of the epitope tag. The stock solution of protein was diluted to 200 nM in assay buffer (50 mM Tris, 50 mM KCl, pH 8 20 mM CHAPS, 2 mM EDTA 10 mM DTT (Fresh)) just before use.
Test compounds were prepared as 6 mM stock solutions in DMSO. […] The right-most column of wells was used for controls. […] Plates were incubated at room temperature for 2 hrs, and then cooled on ice for 30 minutes. 50 uL samples from each well of a single test plate were simultaneously loaded onto an equilibrated AGTC 96 well gel filtration block (Advanced Genetics Technology Corp.) using a Zymak Rapidplate automated pipettor. The block was placed on top of a clean microtiter plate and centrifuged @1,100×g for 4 min. 200 uL of scintillation fluid was added to each well, the plates were sealed and allowed to equilibrate for at least 4 hours before counting in a Wallac 1250 Microbeta counter.
Ki's were determined from a nonlinear least squares fit of the data to a simple competitive binding model.

As to `CN(CCOc1ccc(CC(Nc2ccc(Cl)cc2C(=O)c2ccccc2)C(=O)O)cc1)c1nc2ccccc2o1` (stereo not shown) [Example 20, 3-{4-[2-(benzoxazol-2-yl-methyl-amino)-ethoxy]-phenyl}-2-(2-benzoyl-4-chloro-phenylamino)-propionic acid], the pEC50 – broadly, the negative decadic logarithm of the EC50, by convention in mol/L – in the test on PPARg is 6.92. Further, on hPPARgamma (PPARg Ki), the pKi – broadly, the negative decadic logarithm of the Ki, by convention in mol/L – was 6.74.
In the case of `O=C(c1ccccc1)c1ccccc1NC(Cc1ccc(OC2CCN(c3nc4ccccc4o3)C2)cc1)C(=O)O` (stereo not shown) [Example 21, 3-[4-(1-Benzoxazol-2-yl-pyrrolidin-3-yloxy)-phenyl]-2-(2-benzoyl-phenylamino)-propionic acid], the negative logarithm of the EC50 (pEC50) with PPARg was 6.82. This molecule showed a pKi on hPPARgamma (PPARg Ki) of 6.28.
In the same order, the values of `O=C(c1ccccc1)c1ccccc1NC(Cc1ccc(OC[C@H]2CCCN2c2nc3ccccc3o2)cc1)C(=O)O` (stereo partly shown) [Example 22] are 7.70 and 7.19.
In the same order, the values of `O=C(c1ccccc1)c1ccccc1NC(Cc1ccc(OC[C@@H]2CCCN2c2nc3ccccc3o2)cc1)C(=O)O` (stereo partly shown) [Example 23] are 9.00 and 7.30.
In the same order, the values of `CN(CCOc1ccc(CC(Nc2ccccc2C(=O)C2CCCCC2)C(=O)O)cc1)c1nc2ccccc2o1` (stereo not shown) [Example 24, 3-{4-[2-(Benzoxazol-2-yl-methyl-amino)-ethoxy]-phenyl}-2-(2-cyclohexanecarbonyl-phenylamino)-propionic acid] are 9.00 and 7.52.
`CN(CCOc1ccc(CC(Nc2ccsc2C(=O)c2ccccc2)C(=O)O)cc1)c1nc2ccccc2o1` (stereo not shown) [Example 25]: in the test on PPARg, the pEC50 is 9.00. The negative logarithm of the Ki (pKi) on hPPARgamma (PPARg Ki) was 7.15.
In the same order, the values of `CN(CCOc1ccc(CC(Cc2ccccc2)C(=O)O)cc1)c1nc2ccccc2o1` (stereo not shown) [Example 26, 3-{4-[2-(Benzoxazol-2-yl-methyl-amino)-ethoxy]-phenyl}-2-benzyl-propionic acid trifluoroacetate] are 6.17 and 5.72.
In the same order, the values of `CN(CCOc1ccc(CC(Cc2ccccc2Br)C(=O)O)cc1)c1nc2ccccc2o1` (stereo not shown) [Example 27, 3-{4-[2-(Benzoxazol-2-yl-methyl-amino)-ethoxy]-phenyl}-2-(2-bromo-benzyl)-propionic acid trifluoroacetate] are 6.40 and 6.52.
In the same order, the values of `O=C(c1ccccc1)c1ccccc1NC(Cc1ccc(OCc2csc(-c3ccc(Cl)cc3)n2)cc1)C(=O)O` (stereo not shown) [Example 30, 2-(2-Benzoyl-phenylamino)-3-{4-[2-(4-chlorophenyl)-thiazol-4ylmethoxy]-phenyl}-propionic acid] are 7.30 and 6.52.
Take `O=C(c1ccccc1)c1ccccc1NC(Cc1ccc(OCCn2cnc3ccccc32)cc1)C(=O)O` (stereo not shown) [Example 31, 3-[4-(2-Benzoimidazol-1-yl-ethoxy)-phenyl]-2-(2-benzoyl-phenylamino)-propionic acid]: in the test with PPARg, the negative-log EC50 (pEC50) is 6.35. This molecule showed a pKi at hPPARgamma (PPARg Ki) of 6.84.
In the same order, the values of `Cc1nnsc1-c1nc(CCOc2ccc(C[C@H](Nc3ccccc3C(=O)c3ccccc3)C(=O)O)cc2)c(C)s1` [Example 41, 2(S)-(2-benzoyl-phenylamino)-3-(4-{2-[5-methyl-2-(4-methyl[1,2,3]thiadiazol-5-yl)-thiazol-4-yl]ethoxy}-phenyl)-propionic acid] are 8.30 and 7.15.
In the same order, the values of `COC(=O)c1ccccc1N[C@@H](Cc1ccc(OCCc2nc(-c3ccccc3)sc2C)cc1)C(=O)O` [Example 45, 2-(1-Carboxy-2-{4-[2-(5-methyl-2-phenyl-thiazol-4-yl)-ethoxy]-phenyl}-ethylamino)-benzoic acid methyl ester] are 9.00 and 7.52.
In the same order, the values of `COC(=O)c1ccccc1N[C@@H](Cc1ccc(OCCSc2ccc(Cl)cc2)cc1)C(=O)O` [Example 46, 2-(1-Carboxy-2-{4-[2-(4-clhorophenylsulfanyl)-ethoxy]-phenyl}-ethylamino)-benzoic acid methyl ester] are 6.05 and 6.12.
For the molecule `COC(=O)c1ccccc1N[C@@H](Cc1ccc(OC[C@@H]2CCCN2c2ccc([N+](=O)[O-])cc2)cc1)C(=O)O` [Example 47, 2-(1-Carboxy-2-{4-[1-(4-nitro)-phenyl-pyrrolidin-2-ylmethoxy]-phenyl}-ethylamino)-benzoic acid methyl ester], in the test with PPARg, the negative-log EC50 (pEC50) was 7.30. Also, at hPPARgamma (PPARg Ki), the pKi was 6.62.
In the same order, the values of `CN(CCOc1ccc(CC(Nc2ccccc2C(=O)C2CCCC2)C(=O)O)cc1)c1nc2ccccc2o1` (stereo not shown) [Example 48, 3-{4-[2-(Benzoxazol-2-yl-methyl-amino)-ethoxy]-phenyl}-2-(2-cyclopentanecarbonyl-phenylamino)-propionic acid] are 7.70 and 6.94.
In the same order, the values of `CN(CCOc1ccc(CC(Nc2ccccc2C(=O)C2CCCCCC2)C(=O)O)cc1)c1nc2ccccc2o1` (stereo not shown) [Example 49, 3-{4-[2-(Benzoxazol-2-yl-methyl-amino)-ethoxy]-phenyl}-2-(2-cycloheptanecarbonyl-phenylamino)-propionic acid] are 8.00 and 7.10.
For `CN(CCOc1ccc(CC(Nc2cc(F)ccc2C(=O)C2CCCCC2)C(=O)O)cc1)c1nc2ccccc2o1` (stereo not shown) [Example 50, 3-{4-[2-(Benzoxazol-2-yl-methyl-amino)-ethoxy]-phenyl}-2-(2-cyclohexanecarbonyl-5-fluoro-phenylamino)-propionic acid], the pEC50 with PPARg was 7.30. At hPPARgamma (PPARg Ki), this molecule gave a pKi of 6.41.
As for `CN(CCOc1ccc(CC(Nc2c(C(=O)C3CCCCC3)cnn2C)C(=O)O)cc1)c1nc2ccccc2o1` (stereo not shown) [Example 51, 3-{4-[2-(Benzoxazol-2-yl-methyl-amino)-ethoxy]-phenyl}-2-(4-cyclohexanecarbonyl-2-methyl-2H-pyrazol-3-ylamino)-propionic acid], the negative-log EC50 (pEC50) in the test on PPARg was 6.46. The pKi at hPPARgamma (PPARg Ki) was 6.85.
In the same order, the values of `CN(CCOc1ccc(CC(Nc2sccc2C(=O)c2ccccc2)C(=O)O)cc1)c1nc2ccccc2o1` (stereo not shown) [Example 52, 3-{4-[2-(Benzoxazol-2-yl-methyl-amino)-ethoxy]-phenyl}-2-(3-benzoyl-thiophene-2-ylamino)-propionic acid] are 7.10 and 7.00.
In the same order, the values of `O=C(c1ccccc1)c1ccccc1NC(Cc1ccc(OC2CCN(c3nc4ccccc4o3)C2)cc1)C(=O)O` (stereo not shown) [Example 55, 3-[4-(1-Benzoxazol-2-yl-pyrrolidin-3-yloxy)-phenyl]-2-(2-benzoyl-phenylamino)-propionic acid] are 6.34 and 5.85.
In the same order, the values of `Cc1oc(-c2ccccc2)nc1CCOc1ccc(C[C@H](Nc2ccccc2C(=O)c2ccncc2)C(=O)O)cc1` [Example 56, 3-{4-[2-(5-Methyl-2-phenyl-oxazol-4-yl)-ethoxy]-phenyl}-2(S)-[2-(pyridine-4-carbonyl)-phenylamino]-propionic acid] are 9.00 and 8.00.
On to `Cc1oc(-c2ccccc2)nc1CCOc1ccc(C[C@H](Nc2ccccc2C(=O)c2cc[n+]([O-])cc2)C(=O)O)cc1` [Example 57, 3-{4-[2-(5-methyl-2-phenyl-oxazol-4-yl)-ethoxy]-phenyl}-2(S)-[2-(pyridineN-oxide-4-carbonyl)-phenylamino]-propionic acid], for which the pEC50 with PPARg was 6.82. This molecule also had a negative-log Ki (pKi) at hPPARgamma (PPARg Ki) of 5.90.
In the same order, the values of `Cc1oc(-c2ccccc2)nc1CCOc1ccc(C[C@H](Nc2ccccc2C(=O)c2cccnc2)C(=O)O)cc1` [Example 58, 3-{4-[2-(5-Methyl-2-phenyl-oxazol-4-yl)-ethoxy]-phenyl}-2(S)-[2-(pyridine-3-carbonyl)-phenylamino]-propionic acid] are 9.00 and 7.52.
In the same order, the values of `Cc1oc(-c2ccccc2)nc1CCOc1ccc(C[C@H](Nc2ccccc2C(=O)c2ccc[n+]([O-])c2)C(=O)O)cc1` [Example 59, 3-{4-[2-(5-methyl-2-phenyl-oxazol-4-yl)-ethoxy]-phenyl}-2(S)-[2-(pyridine-N-oxide-3-carbonyl)-phenylamino]-propionic acid] are 7.02 and 7.00.
In the same order, the values of `O=C(c1ccccc1)c1ccccc1N[C@@H](Cc1ccc(OC[C@@H]2CCCN2c2ccccn2)cc1)C(=O)O` [Example 61, 2S-(2-benzoyl-phenylamino)-3-[4-(1-pyridin-2-yl-pyrrolidin-2S-yl-methoxy)-phenyl]-propionic acid] are 7.82 and 8.00.
As for `Cc1cc(-c2ccco2)nn1CCOc1ccc(C[C@H](Nc2ccccc2C(=O)c2ccccc2)C(=O)O)cc1` [Example 63, 2S-(2-benzoyl-phenylamino)-3-{4-[2-(3-furan-2-yl-5-methyl-pyrazol-1-yl)-ethoxy]-phenyl}-propionic acid], the pEC50 in the test with PPARg is 7.70. The pKi at hPPARgamma (PPARg Ki) is 7.52.
Take `COC(=O)c1ccccc1N[C@@H](Cc1ccc(OCCOc2ccc([N+](=O)[O-])cn2)cc1)C(=O)O` [Example 69]: the negative-log EC50 (pEC50) with PPARg is 7.00. Moreover, the pKi on hPPARgamma (read-out: PPARg Ki) is 6.54.
In the same order, the values of `COC(=O)c1ccccc1N[C@@H](Cc1ccc(OCCSc2ccc(Cl)cn2)cc1)C(=O)O` [Example 70] are 6.70 and 6.60.
Take `O=C(c1ccccc1)c1ccccc1N[C@@H](Cc1ccc(OC[C@@H]2CSCN2c2nc3ccccc3o2)cc1)C(=O)O` [Example 72, 3-[4-(3-Benzoxazol-2-yl-thiazolidin-4(R)-ylmethoxy)-phenyl]-2(S)-(2-benzoyl-phenylamino)-propionic acid]: in the test with PPARg, the negative logarithm of the EC50 (pEC50) was 8.30. The pKi on hPPARgamma (PPARg Ki) is 7.52.
